Here are results for three molecules from US20150253327A1, “DIAGNOSIS AND TREATMENT OF ASPIRIN-EXACERBATED RESPIRATORY DISEASE (AERD)” (BRIGHAM AND WOMEN'S HOSPITAL, INC., priority 2012, published 2015).

Series [1] deals with fMLP-stimulated granulocytes. Kind of series: Suppression of fMLP-induced LTB4 generation by granulocytes from subjects with AERD. The note with it: pretreatment of granulocytes from subjects with AERD; FIG. 12B-12C. The series is classed as cell-based, human. The text has this:
FIG. 12A depicts a graph of percentages of platelet-adherent neutrophils (determined by CD61^+ expression) in whole blood from eight subjects with AERD plotted against quantity of LTB4 generated by fMLP-stimulated granulocytes from the same individuals. Percent suppression of fMLP-induced LTB4 by pretreatment with (FIG. 12B) PGE2 or (FIG. 12C) the EP2 receptor-specific agonist was plotted against percentages of platelet-adherent neutrophils in the peripheral blood of each subject. Effect size, determined with Pearson correlation coefficient, is denoted as an r value.
Platelet-rich plasma was removed from whole peripheral blood by centrifugation, washed, and resuspended at a concentration of 1×10^9 platelets/mL. […] Granulocytes were counted and a portion was stripped of adherent platelets by incubation with 0.05% trypsinethylenediaminetetraacetic acid for 15 minutes at 37° C.^17 Removal of adherent platelets was confirmed by cytofluorographic analysis of samples of the granulocytes before and after trypsinization. […]
The percentage of platelet-adherent neutrophils (as determined by CD61+ expression) in the whole blood of subjects with AERD was positively correlated with the amount of LTB4 generated by fMPL-stimulation of granulocytes from the same subjects (FIG. 12A). […]

The next series deals with human platelets. The note with it: exogenous cysLTs; inventors' previous work (ref 49); cited from earlier work.
The subject of another series is mice. The note with it: pathway depends on platelet associated P2Y12 receptors (ref 49); cited from earlier work.
For series [2] the following is noted: extracellular milieu (ref 43); cited from earlier work.

Each structure is given as a SMILES string.

For `CCCCC[C@H](O)/C=C/[C@H]1[C@H](O)CC(=O)[C@@H]1C/C=C\CCCC(=O)O` [PGE2], the “suppression of leukotriene production (fMLP-induced LTB4)” value in series [1] is reported as “able to suppress leukotriene production”.

Consider `CCCCC/C=C\C\C=C/C=C/C=C/[C@@H](SC[C@H](N)C(=O)O)[C@@H](O)CCCC(=O)O` [LTE4], for which, in the series on human platelets, the “adherence of platelets to granulocytes” value is “do not directly cause human platelets to adhere to granulocytes”. Further, the pulmonary eosinophilia result in the series with mice is “markedly potentiates pulmonary eosinophilia”.

Turning to `CCCCC/C=C\C\C=C/C=C/C=C/[C@@H]1O[C@H]1CCCC(=O)O` [LTA4, leukotriene (LT)A4], the extracellular half-life entry in series [2] is reported as “less than 5 seconds”.
